Assay results reported in patent US6632809B2, “Gyrase inhibitors and uses thereof” (Vertex Pharmaceuticals Incorporated, priority 2000, dated 2003).
Converted amounts (≈) assume the structure as drawn.

What was measured:
[1] = target: DNA gyrase (374 kDa Gyr A2B2 subunit from Staphylococcus aureus) (Staphylococcus aureus, UniProt P0A0K8); assay: Gyrase ATPase Assay; type: biochemical; conditions: 10 μM concentration; ATPase assay at 30° C., 0.9 mM ATP; average of duplicate values; read-out: Gyrase Inhibitory Activity (percent inhibition)
Chain of DNA gyrase (374 kDa Gyr A2B2 subunit from Staphylococcus aureus) (P0A0K8 whole entry): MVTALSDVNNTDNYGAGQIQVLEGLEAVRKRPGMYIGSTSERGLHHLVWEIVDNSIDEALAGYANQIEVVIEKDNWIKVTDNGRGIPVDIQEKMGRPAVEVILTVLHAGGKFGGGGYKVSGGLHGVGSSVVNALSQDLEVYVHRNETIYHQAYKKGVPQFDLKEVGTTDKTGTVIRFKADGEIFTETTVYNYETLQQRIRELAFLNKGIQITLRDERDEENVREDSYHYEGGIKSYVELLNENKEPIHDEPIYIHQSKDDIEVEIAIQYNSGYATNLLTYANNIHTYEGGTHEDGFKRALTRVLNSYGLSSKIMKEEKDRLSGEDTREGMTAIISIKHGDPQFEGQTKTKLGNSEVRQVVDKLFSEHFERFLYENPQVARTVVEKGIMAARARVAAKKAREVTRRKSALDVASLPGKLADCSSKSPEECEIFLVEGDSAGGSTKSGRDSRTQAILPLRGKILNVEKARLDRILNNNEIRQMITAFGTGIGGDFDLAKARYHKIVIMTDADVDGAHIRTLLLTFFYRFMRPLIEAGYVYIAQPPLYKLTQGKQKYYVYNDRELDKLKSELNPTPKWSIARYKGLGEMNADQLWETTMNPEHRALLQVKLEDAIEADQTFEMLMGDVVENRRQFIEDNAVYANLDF
Chain of DNA gyrase (374 kDa Gyr A2B2 subunit from Staphylococcus aureus) (P20831 whole entry, further chain): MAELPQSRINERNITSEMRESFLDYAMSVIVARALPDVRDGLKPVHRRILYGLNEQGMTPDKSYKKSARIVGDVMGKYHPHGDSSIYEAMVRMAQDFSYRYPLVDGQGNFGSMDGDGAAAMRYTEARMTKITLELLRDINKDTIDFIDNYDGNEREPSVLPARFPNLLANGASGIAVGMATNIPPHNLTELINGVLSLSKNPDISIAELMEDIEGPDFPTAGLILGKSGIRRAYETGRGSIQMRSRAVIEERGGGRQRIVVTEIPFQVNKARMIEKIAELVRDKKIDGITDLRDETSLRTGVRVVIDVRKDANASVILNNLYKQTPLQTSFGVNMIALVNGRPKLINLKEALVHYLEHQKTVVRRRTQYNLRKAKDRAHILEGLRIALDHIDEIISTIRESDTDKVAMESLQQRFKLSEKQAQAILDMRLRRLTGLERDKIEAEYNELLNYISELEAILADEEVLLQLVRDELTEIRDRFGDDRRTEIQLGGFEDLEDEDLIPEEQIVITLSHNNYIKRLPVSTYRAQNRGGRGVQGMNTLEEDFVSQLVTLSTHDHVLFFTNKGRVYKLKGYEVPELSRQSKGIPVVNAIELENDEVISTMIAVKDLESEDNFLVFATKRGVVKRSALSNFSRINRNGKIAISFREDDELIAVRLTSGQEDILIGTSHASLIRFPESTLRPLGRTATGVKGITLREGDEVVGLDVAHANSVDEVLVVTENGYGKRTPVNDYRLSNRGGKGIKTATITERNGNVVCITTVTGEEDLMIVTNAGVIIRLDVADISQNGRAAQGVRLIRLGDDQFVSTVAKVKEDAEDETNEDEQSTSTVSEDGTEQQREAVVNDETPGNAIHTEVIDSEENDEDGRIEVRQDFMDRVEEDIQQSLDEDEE
Experimental: The ATP hydrolysis activity of DNA gyrase was measure by coupling the production of ADP through pyruvate kinase/lactate dehydrogenase to the oxidation of NADH. This method has been described previously (Tamura and Gellert, 1990, J. Biol. Chem., 265, 21342).
ATPase assays are carried out at 30° C. in buffered solutions containing 100 mM TRIS pH 7.6, 1.5 mM MgCl2, 50 mM KCl. The coupling system contains (final concentrations) 2.5 mM phosphoenol pyruvate, 200 μM nicotinamide adenine dinucleotide (NADH), 1 mM DTT, […], and 10 ug/ml lactate dehydrogenase. 40 nanomolar enzyme (374 kDa Gyr A2B2 subunit from Staphylococcus aureus) and a DMSO solution of the inhibitor to a final concentration of 4% are added and the reaction mixture is allowed to incubate for 10 minutes at 30° C. The reaction is then started by the addition of ATP to a final concentration of 0.9 mM and the rate of NADH disappearance at 340 nanometers is measured over the course of 10 minutes. The percent inhibition values are determined from rate versus concentration profiles and are reported as the average of duplicate values.
The compound numbers correspond to the compound numbers in Table 1. Compounds having an activity designated as “A” provided a percent inhibition value below 50 percent; compounds having an activity designated as “B” provided a percent inhibition value between 50 and 75 percent; and compounds having an activity designated as “C” provided a percent inhibition value greater than 75 percent.

test bacteria = assay: Susceptibility Testing in Liquid Media (MIC assay); type: cell-based; conditions: broth dilution, MHB, 35° C. overnight (16 to 20 hr); organism not given; read-out: MIC (minimal inhibitory concentration) activity level
Experimental: Susceptibility Testing in Liquid Media
Compounds of this invention were also tested for antimicrobial activity by susceptibility testing in liquid media. Such assays were performed within the guidelines of the latest NCCLS document governing such practices: “M7-A5 Methods for dilution Antimicrobial Susceptibility Tests for Bacteria that Grow Aerobically; Approved Standard—Fifth Edition (2000)”. Other publications such as “Antibiotics in Laboratory Medicine” (Edited by V. Lorian, Publishers Williams and Wilkins, 1996) provide essential practical techniques in laboratory antibiotic testing. Essentially, several discrete bacterial colonies (3 to 7) from a freshly streaked plate were transferred to an appropriate rich broth medium such as MHB, supplemented where appropriate for the more fastidious organisms. This was grown overnight to high density followed by a 1 or 2-thousand-fold dilution to give an inoculation density of between 5×10^5 and 5×10^6 CFU per mL. Alternatively, the freshly picked colonies can be incubated at 37° C. for about 4 to 8 hrs until the culture equals or exceeds a turbidity of a 0.5 McFarland standard (approximately 1.5×10^8 cells per mL) and diluted to give the same CFU per mL as above. In a more convenient method, the inoculum was prepared using a commercially available mechanical device (the BBL PROMPT System) that involves touching five colonies directly with a wand, containing crosshatch grooves at its bottom, followed by suspension of the bacteria in an appropriate volume of saline. Dilution to the appropriate inoculum cell density was made from this cell suspension. The broth used for testing consists of MHB supplemented with 50 mg per L of Ca^2+ and 25 mg per L of Mg^2+. Standard dilution panels of control antibiotics were made and stored as in the NCCLS standard M7-A5, the dilution range typically being in the 128 μg per mL to 0.015 μg per mL (by 2-fold serial dilution). The test compounds were dissolved and diluted fresh for experimentation on the same day; the same or similar ranges of concentration as above being used. The test compounds and controls were dispensed into a multiwell plate and test bacteria added such that the final inoculation was approximately 5×10^4 CFU per well and the final volume was 100 μL. The plates were incubated at 35° C. overnight (16 to 20 hr) and checked by eye for turbidity or quantitated with a multiwell plate reader. […] Such determinations were also compared to the appropriate tables contained in the above two publications to ensure that the range of antibacterial activity is within the acceptable range for this standardized assay.
The compound numbers correspond to the compound numbers in Table 1.

SMILES | inhibition at 10 µM [1] | MIC (test bacteria)
CCNC(=O)Nc1nc2cc(-n3cc(C(=O)O)cn3)ccc2[nH]1 [Ia-162] | > 75% | > 40 µg/mL
CCNC(=O)Nc1nc2cc(-c3ccc(CN)nc3)ccc2[nH]1 [Ia-144] | > 75% | 10 to 40 µg/mL (≈ 32.2 to 129 µM)
CCNC(=O)Nc1nc2cc(-c3ccc(CNS(C)(=O)=O)cc3)ccc2[nH]1 [Ia-138] | > 75% | > 40 µg/mL
C=CCCCOc1ccc(-c2ccc3[nH]c(NC(=O)NCC)nc3c2)cn1 [Ia-182] | > 75% | > 40 µg/mL
CCNC(=O)Nc1nc2cc(-c3cccnc3)c(OC)cc2[nH]1 [Ia-42] | > 75% | 10 to 40 µg/mL (≈ 32.1 to 128 µM)
CCNC(=O)Nc1nc2cc(-c3ccc(N4CCOCC4)nc3)ccc2[nH]1 [Ia-166] | > 75% | > 40 µg/mL
CCNC(=O)Nc1nc2cc(-c3cccnc3)c(OC)c(C)c2[nH]1 [Ia-147] | 50 to 75% | > 40 µg/mL
CCNC(=O)Nc1nc2cc(-n3ccc(=O)c(O)c3C)ccc2[nH]1 [Ia-161] | < 50% | > 40 µg/mL
CCNC(=O)Nc1nc2nc(-n3cnc(C(=O)NC4CC4)c3)ccc2[nH]1 [Ia-187] | > 75% | 10 to 40 µg/mL (≈ 28.2 to 113 µM)
CC(C)NC(=O)Nc1nc2cc(-c3cccnc3)ccc2[nH]1 [Ia-120] | 50 to 75% | > 40 µg/mL
CCNC(=O)Nc1nc2cc(-c3ccc(N4CCCCC4)nc3)ccc2[nH]1 [Ia-175] | > 75% | > 40 µg/mL
CCNC(=O)Nc1nc2cc(-n3cnc(C(=O)OC)c3)ccc2[nH]1 [Ia-156, 1-[2-(3-Ethyl-ureido)-3H-benzoimidazol-5-yl]-1H-imiazole-4-carboxylic acid methyl ester] | > 75% | 10 to 40 µg/mL (≈ 30.5 to 122 µM)
CCNC(=O)Nc1nc2nc(-n3cnc(C(=O)OC)c3)ccc2[nH]1 [Ia-184] | 50 to 75% | > 40 µg/mL
CCNC(=O)Nc1nc2cc(-c3ccccc3O)ccc2[nH]1 [Ia-165] | > 75% | 10 to 40 µg/mL (≈ 33.7 to 135 µM)
CCNC(=O)Nc1nc2cc(-c3ccc(CNC(=O)OC(C)(C)C)nc3)ccc2[nH]1 [Ia-148] | > 75% | 10 to 40 µg/mL (≈ 24.4 to 97.4 µM)
CCNC(=O)Nc1nc2cc(-c3cnc(SC)nc3)ccc2[nH]1 [Ia-92] | > 75% | < 10 µg/mL

SMILES | inhibition at 10 µM [1] | MIC (test bacteria)
CCNC(=O)Nc1nc2cc(-c3ccc(CNC(C)=O)cc3)ccc2[nH]1 [Ia-139] | > 75% | > 40 µg/mL
CCNC(=O)Nc1nc2cc(-c3cccnc3)c3c(c2[nH]1)OC(F)(F)O3 [Ia-153] | 50 to 75% | > 40 µg/mL
CCNC(=O)Nc1nc2cc(-c3cccnc3)cc(OCc3ccccc3)c2[nH]1 [Ia-168] | > 75% | < 10 µg/mL
O=C(Nc1nc2cc(-c3cccnc3)ccc2[nH]1)NC1CCCC1 [Ia-121] | < 50% | > 40 µg/mL
CCNC(=O)Nc1nc2cc(-c3occc(=O)c3O)ccc2[nH]1 [Ia-181] | 50 to 75% | > 40 µg/mL
CCCCNC(=O)c1cn(-c2ccc3[nH]c(NC(=O)NCC)nc3c2)cn1 [Ia-186] | > 75% | < 10 µg/mL
CCNC(=O)Nc1nc2cc(-c3nnc(C)o3)ccc2[nH]1 [Ia-150] | 50 to 75% | > 40 µg/mL
CCNC(=O)Nc1nc2cc(-c3cccnc3)c(C)cc2[nH]1 [Ia-133] | > 75% | < 10 µg/mL
CCOC(=O)Nc1nc2cc(-c3cncc(NC(C)=O)c3)ccc2[nH]1 [Ia-122] | > 75% | > 40 µg/mL
CCNC(=O)Nc1nc2cc(-c3cccnc3)c(N3CCOCC3)cc2[nH]1 [Ia-164] | > 75% | > 40 µg/mL
CCNC(=O)Nc1nc2cc(-c3ccc(OCC)nc3)ccc2[nH]1 [Ia-163] | > 75% | < 10 µg/mL
CCNC(=O)Nc1nc2cc(-n3cnc(C(=O)NCc4cccnc4)c3)ccc2[nH]1 [Ia-171] | > 75% | 10 to 40 µg/mL (≈ 24.7 to 98.9 µM)
CSc1ncc(-c2ccc3[nH]c(NC(=O)NC(C)C)nc3c2)cn1 [Ia-116] | 50 to 75% | > 40 µg/mL
CCNC(=O)Nc1nc2cc(-c3cccnc3)cc(C)c2[nH]1 [Ia-58] | > 75% | < 10 µg/mL
CCNC(=O)Nc1nc2cc(-c3cccc(=O)[nH]3)ccc2[nH]1 [Ia-158] | > 75% | > 40 µg/mL
CCNC(=O)Nc1nc2cc(-c3cccnc3)ccc2[nH]1 [Ia-118] | > 75% | < 10 µg/mL
